Measurements from patent US20050221381A1, “Method for isolating ligands” (priority 2002, published 2005).
Entries after “also recorded” stand apart in the source; their conditions may differ.

Assays:
CMV = conditions: cited from earlier work
[1] = in vivo; cited from earlier work
[2] = system: CMV mutants resistant to Ganciclovir, Cidofuvir and Foscarnet; conditions: cited from earlier work
[3] = system: CD8+ T-cells, HLA-A*0201 positive T2 cells; conditions: interferon-gamma ELIspot
HLA-A2 = HLA-A2 (Homo sapiens, UniProt P04439, D140Y/D185E/D98H/E176V/E277Q/G131W/G231S/I119V/I121R/I166T/I218V/L300P/L318F/N151K/N90K/P208A/P217A/Q86G/Q94H/R138H/R169H/T345S); conditions: cited from earlier work
[4] = molecular target: T1, soluble DRB1*0401 molecules (DR4) (Homo sapiens, UniProt P01903+P01911, A100K/A169T/F76Y/I96L/K127E/L162R/M171V/N62H/P40V/Q125Y/R42H/S133A/S149N/S66Y/V115G/V209L/W38E); format: binding; set-up: key to DR4 binding: +++: high binding affinity; ++: moderate binding affinity; +: low binding affinity; −: no binding; conditions: SDS-stability assay
T1 construct: Soluble HLA class I A*0201 and HLA class II DRA1*0101/DRB1*0101/Ii, DRA1*0101/DRB1*0401/Ii and DRA1*0101/DRB1*0404/Ii molecules were expressed in SC-2 cells; made in house; host or cells: SC-2 cells

[5] = molecular target: T2, soluble DRB1*0401 molecules (Homo sapiens, UniProt P01903+P01911, A100K/A169T/F76Y/I96L/K127E/L162R/M171V/N62H/P40V/Q125Y/R42H/S133A/S149N/S66Y/V115G/V209L/W38E); experiment: Epitope capture from peptide mixtures, gel filtration and MALDI-TOF MS of bound peptides; format: binding
T2 construct: Soluble HLA class I A*0201 and HLA class II DRA1*0101/DRB1*0101/Ii, DRA1*0101/DRB1*0401/Ii and DRA1*0101/DRB1*0404/Ii molecules were expressed in SC-2 cells; made in house; host or cells: SC-2 cells
Description: After peptide binding reaction with soluble HLA molecules, HLA-peptide complexes were separated from free peptides by gel-filtration chromatography on Superdex-200 column (AKTAdesign, Amersham Pharmacia Biotech). HLA-containing fractions were collected, and bound peptides were reconstituted from the complexes by adding TFA to the final concentration of 1%. Peptides were desolted by Ziptip purification and analyzed by MALDI-TOF mass-spectrometry.
Second, the ability to capture peptides binding to HLA class II molecules from the mixture of two high affinity ligands was tested. The binding reaction contained 1 μM of soluble DRB1*0401 molecules and 5 μM of each YAR and 1242 peptide. After the HLA-peptide complexes were formed, they were separated from the excess of free peptides by gel filtration chromatography. Fractions containing MHC molecules were collected. Bound peptides were eluted from the complexes and analyzed by mass-spectrometry.
Third, it was investigated if the binding capacity of the high affinity ligand would be influenced by the excess of low affinity peptide. […] Peptide binding was assessed by SDS-stability assay and verified by MS analysis (FIG. 3).
The final concentration of each peptide in binding reaction was 5 μM, except 1236 added in 55 μM, meaning that the concentration of each individual binding peptide was 20-fold lower than final concentration of all peptides. DRB1*0401 molecules were added to 1 μM. The formation of MHC-peptide complexes was evaluated as described above, using single peptides as controls (FIG. 4). […] The result of this analysis yielded the two peptides with highest binding affinities: 1242 and YAR (see Table 1). The peptides with moderate and/or low affinities were not found in the complexes, probably due to the high concentration of strong competitors used in this assay.

isolated CD4+ T cells = experiment: Synthetic IFN-γ Elispot assay with sHLA DRB1*0401 and anti CD28; format: cell-based, human; conditions: sHLA DRB1*0401 loaded with peptide, vs negative control peptide p84 (FIG. 5a)

CC(C)[C@H](N)C(=O)OCC(CO)OCn1cnc2c(=O)nc(N)[nH]c21 (stereo partly drawn) [Valganciclovir]
Incidence of CMV disease (CMV; kidney transplant patients, given for three months): reduced the incidence of CMV disease
Proportion of patients with biopsy-proven rejection (CMV; six months after transplantation): significant reduction
Oral bioavailability [1]: markedly increased

Fomivirsen
Efficacy against multidrug resistant mutants [2]: effective against such mutants

RLLQTGIHV
Confirmation as HLA-A*0201 epitope / induction of functional T-cells (in words) [3]: induce functional T-cells
Binding to HLA-A2 / stabilisation of HLA-A2/β2m/peptide complex (HLA-A2): can stabilize; also recorded: has been demonstrated

YNINISLPSYYPDQKSL [Peptide 1242]
Binding to soluble DRB1*0401 molecules (in words) [4]: highest
DR4 binding ([4]; direct binding of individual peptides, compared with YAR and HA306-318): +++
Formation of stable MHC-complexes in presence of excess low affinity peptide ([5]; 1242 5 to 50 μM, 100 μM peptide 1236 (2-20 fold excess), 1 μM DRB1*0401): does not impede the formation of stable MHC-complexes
Peptides captured from pool of 10 peptides, MS analysis ([5]; each peptide 5 μM, 1236 55 μM, DRB1*0401 1 μM): captured by DR4 molecules
Peptides found in complexes with MHC molecules by MS ([5]; mixture of two ligands, 5 μM each, 1 μM DRB1*0401): revealed in the complexes with MHC molecules
Number of induced IFN-γ spots (isolated CD4+ T cells): significantly above the spontaneous IFN-γ secretion
